# Reference: BindingDB's records for doi:10.1021/jm00124a018 (Institute of Cancer Research, 1989)
# Target: Thymidylate synthase (Mus musculus, L1210)
# Test: Inhibitory concentration of compound to inhibit Thymidylate synthase (TS) in L1210 cells at conc. of 200 uM
row,IC50 [nM],Structure (SMILES)
1,520,CCN(Cc1ccc2nc[nH]c(=O)c2c1)c1ccc(C(=O)NC(CCC(=O)O)C(=O)O)cc1 (configuration not stated)
2,60,CCN(Cc1ccc2nc(N)[nH]c(=O)c2c1)c1ccc(C(=O)NC(CCC(=O)O)C(=O)O)cc1 (configuration not stated)
